{"source": "ChEMBL document CHEMBL5634183", "about": "“Total Synthesis of Bipenicilisorin and Assignment of the Absolute Configuration” (J Nat Prod, 2024)", "key": {"[1]": {"test_system": "A549", "test": "Antiproliferative activity against human A549 cells assessed as reduction in cell viability incubated for 72 hrs by CCK8 assay", "format": "functional, cell-based"}, "[2]": {"test_system": "K562", "test": "Antiproliferative activity against human K562 cells assessed as reduction in cell viability by CCK8 assay", "format": "functional, cell-based"}, "[3]": {"test_system": "A549", "test": "Antiproliferative activity against human A549 cells assessed as reduction in cell viability by CCK8 assay", "format": "functional, cell-based"}, "[4]": {"test": "Cytotoxicity against mouse RAW264.7 cells assessed as reduction in cell viability incubated for 72 hrs by CCK8 assay", "format": "toxicity, cell-based"}, "[5]": {"test_system": "Colon 26", "test": "Antiproliferative activity against mouse Colon 26 cells assessed as reduction in cell viability incubated for 72 hrs by CCK8 assay", "format": "functional, cell-based", "settings": "Colon 26, 72 h"}, "[6]": {"test_system": "Huh-7", "test": "Antiproliferative activity against human Huh-7 cells assessed as reduction in cell viability by CCK8 assay", "format": "functional, cell-based"}}}
{"compound": "COC(=O)c1cc2cc(OC)c(-c3c(OC)cc4cc(C(=O)OC)oc(=O)c4c3O)c(O)c2c(=O)o1", "values": [{"measurement": "IC50", "setting": "[1]; Homo sapiens, A549, 72 h", "value": 36.9, "unit": "µM"}, {"measurement": "IC50", "setting": "[1]; a549", "value": 60, "unit": "µM"}, {"measurement": "IC50", "setting": "[2]", "value": 6.87, "unit": "µM"}, {"measurement": "IC50", "setting": "[3]", "value": 6.94, "unit": "µM"}, {"measurement": "IC50 at 72 h", "setting": "[4]", "value": "> 50", "unit": "µM"}, {"measurement": "IC50", "setting": "[5]", "value": "> 50", "unit": "µM"}, {"measurement": "IC50", "setting": "[6]", "value": 2.59, "unit": "µM"}]}
